Experiment [1] is filed under the species Mus musculus. Briefly: animal or person. To be noted: ip.
The species named for experiment [2] is Mus musculus. Briefly: animal or person. To be noted: ip. This is another data set of the same source.

In general, ILS refers to the gain in survival time of treated over control animals, in per cent. Low values mean little gain in survival, high ones much gain in survival.

As to `O=P1(N(CCCl)CCCl)NCCCO1` (configuration not stated) [CYCLOPHOSPHAMIDE ANHYDROUS], the ILS at 100 mg/kg in experiment [1] was above 100%. Also, the ILS at 200 mg/kg in experiment [2] is above 150%.

The record behind these values is ChEMBL document CHEMBL1121862, “Synthesis of 3-hydroxycyclophosphamide and studies related to its possible role in the metabolism of cyclophosphamide” (1981).
